From patent US20250340574A1, “MODULATORS OF CYSTIC FIBROSIS TRANSMEMBRANE CONDUCTANCE REGULATOR” (Vertex Pharmaceuticals Incorporated, priority 2022, published 2025) come the findings set out here.

One may read the EC50 as the concentration that produces a half-maximal response.

The target of the first assay is T1, CFTR (F508del/MF-HBE cells) (Homo sapiens, UniProt P13569, DEL508-508).
T1 construct: human bronchial epithelial (HBE) cells derived from CF subjects heterozygous for F508del and a minimal function CFTR mutation (F508del/MF-HBE); endogenous in cells; host or cells: Primary human bronchial epithelial cells from CF subjects (F508del/MF genotype), differentiated at an air-liquid interface
T1 sequence (P13569 with tags, fused parts or gaps DEL508-508): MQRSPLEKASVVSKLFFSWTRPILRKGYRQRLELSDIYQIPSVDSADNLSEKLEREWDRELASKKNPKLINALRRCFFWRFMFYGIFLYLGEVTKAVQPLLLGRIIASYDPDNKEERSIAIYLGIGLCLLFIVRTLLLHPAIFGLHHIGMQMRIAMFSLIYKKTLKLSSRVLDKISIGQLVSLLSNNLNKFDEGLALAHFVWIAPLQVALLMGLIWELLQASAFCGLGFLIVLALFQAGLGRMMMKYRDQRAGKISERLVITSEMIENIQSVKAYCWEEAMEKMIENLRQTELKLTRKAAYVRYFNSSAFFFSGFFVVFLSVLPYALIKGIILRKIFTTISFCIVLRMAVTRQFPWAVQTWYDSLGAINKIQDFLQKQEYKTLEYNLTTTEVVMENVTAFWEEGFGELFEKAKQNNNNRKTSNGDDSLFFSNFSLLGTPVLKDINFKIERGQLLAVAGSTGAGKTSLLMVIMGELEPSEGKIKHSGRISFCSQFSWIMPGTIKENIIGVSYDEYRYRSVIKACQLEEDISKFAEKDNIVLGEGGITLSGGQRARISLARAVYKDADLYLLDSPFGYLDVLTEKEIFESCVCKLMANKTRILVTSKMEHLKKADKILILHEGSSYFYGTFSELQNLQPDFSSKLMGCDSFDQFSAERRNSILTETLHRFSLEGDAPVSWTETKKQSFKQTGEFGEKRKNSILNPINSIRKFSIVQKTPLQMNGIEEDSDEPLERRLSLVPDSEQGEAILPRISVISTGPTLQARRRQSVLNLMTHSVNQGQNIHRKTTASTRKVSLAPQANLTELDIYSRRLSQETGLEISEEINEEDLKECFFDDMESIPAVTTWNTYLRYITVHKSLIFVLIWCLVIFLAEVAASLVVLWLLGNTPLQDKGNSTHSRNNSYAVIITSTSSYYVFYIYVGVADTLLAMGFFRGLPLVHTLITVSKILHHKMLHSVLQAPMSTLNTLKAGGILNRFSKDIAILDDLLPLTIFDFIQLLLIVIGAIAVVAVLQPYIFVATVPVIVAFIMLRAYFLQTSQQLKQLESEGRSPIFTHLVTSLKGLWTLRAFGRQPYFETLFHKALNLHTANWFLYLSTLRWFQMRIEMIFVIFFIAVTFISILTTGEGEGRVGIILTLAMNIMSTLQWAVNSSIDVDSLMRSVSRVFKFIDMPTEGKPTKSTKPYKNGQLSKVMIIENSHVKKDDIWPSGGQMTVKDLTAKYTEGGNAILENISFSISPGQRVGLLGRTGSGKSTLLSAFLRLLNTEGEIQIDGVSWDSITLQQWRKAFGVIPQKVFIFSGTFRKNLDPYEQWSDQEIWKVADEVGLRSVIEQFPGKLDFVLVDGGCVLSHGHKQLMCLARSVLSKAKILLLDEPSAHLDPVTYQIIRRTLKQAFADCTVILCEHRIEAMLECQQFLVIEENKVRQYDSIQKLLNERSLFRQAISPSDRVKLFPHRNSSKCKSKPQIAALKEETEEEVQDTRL
The experiment in a line: Ussing chamber assay of CFTR-mediated short-circuit currents, Assay C (0.026 μM to 25 μM, 6 concentrations). It is filed as cell-based. To be noted: with 33 nM potentiator and 18 μM Tezacaftor, 18-24 hours, 20% human serum, read-out: C Max activity (%). The method in brief:
(§1)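 F508del/MF-HBE cells grown at air-liquid interface were incubated 18-24 h at 37 °C in 20% human serum with correctors plus 18 μM tezacaftor and a fixed partner compound (33 nM for concentration series, 44 nM at 1 μM). ISC was read at 0 mV after 20 μM forskolin, minus the post-inhibitor current.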
In the case of `Cc1cccc(C)c1-c1cc2nc(n1)NS(=O)(=O)c1cccc(c1)C(=O)N(Cc1ncc3cc(C4CC4)n(C)c3n1)[C@H](CC13CC(C1)C3)CO2` [Compound I-264], the Emax is above 60%.
Consider `Cc1cccc(C)c1-c1cc2nc(n1)NS(=O)(=O)c1cccc(c1)C(=O)N(Cc1cnc3cc(C4CC4)n(C)c3n1)[C@@H](CCC1(C)CC1)CO2` (stereo in doubt) [Compound I-207], for which the Emax is above 60%.
For `Cc1cccc(C)c1-c1nc2nc(c1C)OC[C@@H](CC(C)(C)C)N(Cc1cnc3oc(C(C)C)cc3n1)C(=O)c1cccc(c1)S(=O)(=O)N2` [Compound I-110], the Emax was above 60%.
On the same count and under the same terms, then `Cc1cccc(CC2CCCC2)c1-c1nc2nc(c1C)OC[C@@H](CC(C)(C)C)N(Cc1cnc3oc(C4CC4)cc3n1)C(=O)c1cccc(c1)S(=O)(=O)N2` (atropisomer, axis not shown) [Compound I-195], with above 60%; and `Cc1cccc(C)c1-c1cc2nc(n1)NS(=O)(=O)c1cccc(c1)C(=O)N(Cc1cnc3cc(C(C)(C)C)n(C)c3n1)[C@H](CC(C)(C)C)CO2` [Compound I-239], with above 60%.
Still for that read-out and setting: for `Cc1cccc(C2CC2)c1-c1nc2nc(c1C)OC[C@@H](CC(C)(C)C)N(Cc1cnc3oc(C4CC4)cc3n1)C(=O)c1cccc(c1)S(=O)(=O)N2` (atropisomer, axis not shown) [Compound I-152] the value was above 60%; for `Cc1cccc(C)c1-c1nc2nc(c1C)OC[C@@H](CC(C)(C)C)N(Cc1cnc3cc(C(C)C)n(C)c3n1)C(=O)c1cccc(c1)S(=O)(=O)N2` [Compound I-168], above 60%.
On the same count and under the same terms, then `Cc1cccc(C)c1-c1cc2nc(n1)NS(=O)(=O)c1cccc(c1)C(=O)N(Cc1ncc3cc(C4CC4)n(C)c3n1)[C@H](CC1(C)CC1)CO2` [Compound I-263], with above 60%.
Consider `Cc1cccc(C)c1-c1cc2nc(n1)NS(=O)(=O)c1cccc(c1)C(=O)N(Cc1cnc3oc(C(C)(C)C)cc3n1)[C@H](CC(C)(C)C)CO2` [Compound I-218], for which the Emax was above 60%.
Still for that read-out and setting: for `Cc1cccc(CC(C)C)c1-c1nc2nc(c1C)OC[C@@H](COC(C)C)N(Cc1cnc3cc(C(C)C)n(C)c3n1)C(=O)c1cccc(c1)S(=O)(=O)N2` (atropisomer, axis not shown) [Compound I-211] the value was above 60%.
Same read-out and setting: then `Cc1cccc(C)c1-c1nc2nc(c1C)OC[C@@H](CC(C)(C)C)N(Cc1ncc3cc(C4CC4)n(C)c3n1)C(=O)c1cccc(c1)S(=O)(=O)N2` [Compound I-265], with above 60%.
Same read-out and setting: then `Cc1cccc(C)c1-c1nc2nc(c1C)OC[C@@H](CC13CC(C1)C3)N(Cc1cnc3oc(C4(C)CC4)cc3n1)C(=O)c1cccc(c1)S(=O)(=O)N2` [Compound I-231], with above 60%; and `Cc1cccc(CC(C)C)c1-c1nc2nc(c1C)OC[C@@H](CC(C)(C)C)N(Cc1cnc3nc(C(C)C)n(C)c3n1)C(=O)c1cccc(c1)S(=O)(=O)N2` (atropisomer, axis not shown) [Compound I-171], with above 60%.
As to `Cc1cccc(C)c1-c1cc2nc(n1)NS(=O)(=O)c1cccc(c1)C(=O)N(Cc1cnc3cc(C(C)(C)C)n(C)c3n1)[C@H](COC(C)C)CO2` [Compound I-185], the Emax was above 60%.

Still in this assay, the particulars now being: with 33 nM potentiator and 18 μM Tezacaftor, 20% human serum.
As for `Cc1cccc(C)c1-c1cc2nc(n1)NS(=O)(=O)c1cccc(c1)C(=O)N(Cc1ncc3cc(C4CC4)n(C)c3n1)[C@H](CC13CC(C1)C3)CO2` [Compound I-264], the EC50 was 1000 to 3000 nM.
As for `Cc1cccc(C)c1-c1cc2nc(n1)NS(=O)(=O)c1cccc(c1)C(=O)N(Cc1cnc3cc(C4CC4)n(C)c3n1)[C@@H](CCC1(C)CC1)CO2` (stereo in doubt) [Compound I-207], the EC50 was below 1000 nM.
The same measure, in the same setting: then `Cc1cccc(C)c1-c1nc2nc(c1C)OC[C@@H](CC(C)(C)C)N(Cc1cnc3oc(C(C)C)cc3n1)C(=O)c1cccc(c1)S(=O)(=O)N2` [Compound I-110], with 1000 to 3000 nM; and `Cc1cccc(CC2CCCC2)c1-c1nc2nc(c1C)OC[C@@H](CC(C)(C)C)N(Cc1cnc3oc(C4CC4)cc3n1)C(=O)c1cccc(c1)S(=O)(=O)N2` (atropisomer, axis not shown) [Compound I-195], with below 1000 nM.
Same read-out and setting: then `Cc1cccc(C)c1-c1cc2nc(n1)NS(=O)(=O)c1cccc(c1)C(=O)N(Cc1cnc3cc(C(C)(C)C)n(C)c3n1)[C@H](CC(C)(C)C)CO2` [Compound I-239], with below 1000 nM.
`Cc1cccc(C2CC2)c1-c1nc2nc(c1C)OC[C@@H](CC(C)(C)C)N(Cc1cnc3oc(C4CC4)cc3n1)C(=O)c1cccc(c1)S(=O)(=O)N2` (atropisomer, axis not shown) [Compound I-152]: the EC50 is below 1000 nM.
On the same count and under the same terms, then `Cc1cccc(C)c1-c1nc2nc(c1C)OC[C@@H](CC(C)(C)C)N(Cc1cnc3cc(C(C)C)n(C)c3n1)C(=O)c1cccc(c1)S(=O)(=O)N2` [Compound I-168], with below 1000 nM; and `Cc1cccc(C)c1-c1cc2nc(n1)NS(=O)(=O)c1cccc(c1)C(=O)N(Cc1ncc3cc(C4CC4)n(C)c3n1)[C@H](CC1(C)CC1)CO2` [Compound I-263], with 1000 to 3000 nM; and `Cc1cccc(C)c1-c1cc2nc(n1)NS(=O)(=O)c1cccc(c1)C(=O)N(Cc1cnc3oc(C(C)(C)C)cc3n1)[C@H](CC(C)(C)C)CO2` [Compound I-218], with below 1000 nM.
Same read-out and setting: then `Cc1cccc(CC(C)C)c1-c1nc2nc(c1C)OC[C@@H](COC(C)C)N(Cc1cnc3cc(C(C)C)n(C)c3n1)C(=O)c1cccc(c1)S(=O)(=O)N2` (atropisomer, axis not shown) [Compound I-211], with below 1000 nM; and `Cc1cccc(C)c1-c1nc2nc(c1C)OC[C@@H](CC(C)(C)C)N(Cc1ncc3cc(C4CC4)n(C)c3n1)C(=O)c1cccc(c1)S(=O)(=O)N2` [Compound I-265], with 1000 to 3000 nM.
Same read-out and setting: then `Cc1cccc(C)c1-c1nc2nc(c1C)OC[C@@H](CC13CC(C1)C3)N(Cc1cnc3oc(C4(C)CC4)cc3n1)C(=O)c1cccc(c1)S(=O)(=O)N2` [Compound I-231], with below 1000 nM.
Take `Cc1cccc(CC(C)C)c1-c1nc2nc(c1C)OC[C@@H](CC(C)(C)C)N(Cc1cnc3nc(C(C)C)n(C)c3n1)C(=O)c1cccc(c1)S(=O)(=O)N2` (atropisomer, axis not shown) [Compound I-171]: the EC50 was below 1000 nM.
Same read-out and setting: for `Cc1cccc(C)c1-c1cc2nc(n1)NS(=O)(=O)c1cccc(c1)C(=O)N(Cc1cnc3cc(C(C)(C)C)n(C)c3n1)[C@H](COC(C)C)CO2` [Compound I-185] the value was below 1000 nM.

A further assay has as its target T1, CFTR (F508del/MF-HBE cells). The experiment in a line: Ussing chamber assay of CFTR-mediated short-circuit currents, Assay D (single concentration of 1 μM). Type of assay: cell-based. The conditions noted are these: with 44 nM potentiator and 18 μM Tezacaftor, 18-24 hours, 20% human serum. In outline:
as §1
As for `Cc1cccc(C)c1-c1cc2nc(n1)NS(=O)(=O)c1cccc(c1)C(=O)N(Cc1ncc3cc(C4CC4)n(C)c3n1)[C@H](CC13CC(C1)C3)CO2` [Compound I-264], the “D activity at 1 μM (%)” value is recorded as “+++ (+++ is >60%)”.
Take `Cc1cccc(C)c1-c1cc2nc(n1)NS(=O)(=O)c1cccc(c1)C(=O)N(Cc1cnc3cc(C4CC4)n(C)c3n1)[C@@H](CCC1(C)CC1)CO2` (stereo in doubt) [Compound I-207]: the “D activity at 1 μM (%)” value was “+++ (+++ is >60%)”.
The same measure, in the same setting: then `Cc1cccc(C)c1-c1nc2nc(c1C)OC[C@@H](CC(C)(C)C)N(Cc1cnc3oc(C(C)C)cc3n1)C(=O)c1cccc(c1)S(=O)(=O)N2` [Compound I-110], with “+++ (+++ is >60%)”.
On the same count and under the same terms, for `Cc1cccc(CC2CCCC2)c1-c1nc2nc(c1C)OC[C@@H](CC(C)(C)C)N(Cc1cnc3oc(C4CC4)cc3n1)C(=O)c1cccc(c1)S(=O)(=O)N2` (atropisomer, axis not shown) [Compound I-195] the value was “+++ (+++ is >60%)”.
On the same count and under the same terms, then `Cc1cccc(C)c1-c1cc2nc(n1)NS(=O)(=O)c1cccc(c1)C(=O)N(Cc1cnc3cc(C(C)(C)C)n(C)c3n1)[C@H](CC(C)(C)C)CO2` [Compound I-239], with “+++ (+++ is >60%)”.
On to `Cc1cccc(C2CC2)c1-c1nc2nc(c1C)OC[C@@H](CC(C)(C)C)N(Cc1cnc3oc(C4CC4)cc3n1)C(=O)c1cccc(c1)S(=O)(=O)N2` (atropisomer, axis not shown) [Compound I-152], for which the “D activity at 1 μM (%)” value is on record as “+++ (+++ is >60%)”.
Same read-out and setting: for `Cc1cccc(C)c1-c1nc2nc(c1C)OC[C@@H](CC(C)(C)C)N(Cc1cnc3cc(C(C)C)n(C)c3n1)C(=O)c1cccc(c1)S(=O)(=O)N2` [Compound I-168] the value was “+++ (+++ is >60%)”; for `Cc1cccc(C)c1-c1cc2nc(n1)NS(=O)(=O)c1cccc(c1)C(=O)N(Cc1ncc3cc(C4CC4)n(C)c3n1)[C@H](CC1(C)CC1)CO2` [Compound I-263], “+++ (+++ is >60%)”.
On the same count and under the same terms, then `Cc1cccc(C)c1-c1cc2nc(n1)NS(=O)(=O)c1cccc(c1)C(=O)N(Cc1cnc3oc(C(C)(C)C)cc3n1)[C@H](CC(C)(C)C)CO2` [Compound I-218], with “+++ (+++ is >60%)”; and `Cc1cccc(CC(C)C)c1-c1nc2nc(c1C)OC[C@@H](COC(C)C)N(Cc1cnc3cc(C(C)C)n(C)c3n1)C(=O)c1cccc(c1)S(=O)(=O)N2` (atropisomer, axis not shown) [Compound I-211], with “+++ (+++ is >60%)”.
On the same count and under the same terms, then `Cc1cccc(C)c1-c1nc2nc(c1C)OC[C@@H](CC(C)(C)C)N(Cc1ncc3cc(C4CC4)n(C)c3n1)C(=O)c1cccc(c1)S(=O)(=O)N2` [Compound I-265], with “+++ (+++ is >60%)”; and `Cc1cccc(C)c1-c1nc2nc(c1C)OC[C@@H](CC13CC(C1)C3)N(Cc1cnc3oc(C4(C)CC4)cc3n1)C(=O)c1cccc(c1)S(=O)(=O)N2` [Compound I-231], with “+++ (+++ is >60%)”; and `Cc1cccc(CC(C)C)c1-c1nc2nc(c1C)OC[C@@H](CC(C)(C)C)N(Cc1cnc3nc(C(C)C)n(C)c3n1)C(=O)c1cccc(c1)S(=O)(=O)N2` (atropisomer, axis not shown) [Compound I-171], with “+++ (+++ is >60%)”.
Consider `Cc1cccc(C)c1-c1cc2nc(n1)NS(=O)(=O)c1cccc(c1)C(=O)N(Cc1cnc3cc(C(C)(C)C)n(C)c3n1)[C@H](COC(C)C)CO2` [Compound I-185], for which the “D activity at 1 μM (%)” value is on record as “+++ (+++ is >60%)”.
